Four compounds from ChEMBL document CHEMBL3351643, “A potent cyclic peptide targeting SPSB2 protein as a potential anti-infective agent” (J Med Chem, 2014) can be followed below.

Activity calls are given as the source filed them. The calls are words filed in the database; no cut-off is given here. Where a SMILES comes first, the peptide text is derived from it. Bridges are numbered along the chain shown (N, C = ends).

Data set [1] is described as follows: Stability in human plasma assessed as compound remaining at 50 uM after 24 hrs by RP-HPLC analysis. The conditions noted are these: read-out: Stability. It counts as ADME, cell-free.
A short description of data set [2]: Stability of the compound assessed as pepsin (unknown origin)-mediated drug degradation at 200:1 peptide to enzyme ratio after 24 to 96 hrs by RP-HPLC analysis. It counts as ADME. The conditions noted are these: human.
Data set [3] deals with T1, SPRY domain-containing SOCS box protein 2 (Homo sapiens, UniProt Q99619).
T1 sequence (Q99619 whole entry): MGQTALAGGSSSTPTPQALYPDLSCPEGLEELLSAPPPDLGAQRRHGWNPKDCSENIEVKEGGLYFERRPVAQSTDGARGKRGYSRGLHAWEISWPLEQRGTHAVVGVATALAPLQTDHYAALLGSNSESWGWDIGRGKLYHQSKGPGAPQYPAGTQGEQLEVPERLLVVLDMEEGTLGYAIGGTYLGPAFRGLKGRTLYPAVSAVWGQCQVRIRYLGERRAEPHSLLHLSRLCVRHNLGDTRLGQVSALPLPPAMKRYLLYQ
In words: Binding affinity to GST-tagged SPSB2 (unknown origin) expressed in Escherichia coli BL21 (DE3) by SPR assay. (In general: Surface plasmon resonance follows binding to a sensor surface in real time, without labels.)

The nature of data set [4]: Stability of the compound in 1:1 ratio of DTT:H2O2 at 0.5 mg/ml after 1 hr by redox stability/RP-HPLC assay. It counts as physicochemical. The conditions noted are these: 1:1 DTT:H2O2; read-out: Stability.
The nature of data set [5]: Stability of the compound in 1 mM DTT at 0.5 mg/ml after 15 mins by redox stability/RP-HPLC assay. The class given is physicochemical. The conditions noted are these: 0.25 h.
Data set [6] can be described thus: Stability of the compound in 1:10 ratio of DTT:H2O2 at 0.5 mg/ml after 1 hr by redox stability/RP-HPLC assay. The class given is physicochemical.
The nature of data set [7]: Stability of the compound assessed as trypsin (unknown origin)-mediated drug degradation at 200:1 peptide to enzyme ratio after 24 to 96 hrs by RP-HPLC analysis. It counts as ADME. The conditions noted are these: human.
The nature of data set [8]: Stability of the compound assessed as alpha-chymitrypsin (unknown origin)-mediated drug degradation at 200:1 peptide to enzyme ratio after 24 to 96 hrs by RP-HPLC analysis. It counts as ADME. The conditions noted are these: human.
In data set [9] the target is T2, SPRY domain-containing SOCS box protein 2 (Mus musculus) (UniProt O88838).
T2 sequence (whole entry): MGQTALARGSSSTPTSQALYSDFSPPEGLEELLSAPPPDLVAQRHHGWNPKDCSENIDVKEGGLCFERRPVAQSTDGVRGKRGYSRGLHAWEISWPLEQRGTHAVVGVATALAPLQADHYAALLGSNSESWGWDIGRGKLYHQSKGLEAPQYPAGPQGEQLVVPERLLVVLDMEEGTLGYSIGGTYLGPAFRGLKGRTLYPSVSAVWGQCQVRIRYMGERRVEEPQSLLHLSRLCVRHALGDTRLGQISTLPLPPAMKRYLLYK
In words: Displacement of full-length of iNOS from SPSB2 in LPS/IFNgamma-stimulated mouse BMDM cell lysate at 10 uM after 2 hrs by Western blotting analysis. The class given is cell-free.

Regarding Ac-KEEKDINNNVKKT-NH2, the remaining at 24 h, 50 µM in data set [1] worked out at 83%. Besides, the Stability result in [2] is reported as “Unstable”.
For `CC[C@H](C)[C@@H]1NC(=O)[C@H](CC(=O)O)NC(=O)[C@H](C(C)C)NC(=O)[C@@H](NC(C)=O)CSSC[C@@H](C(N)=O)NC(=O)[C@H](CC(N)=O)NC(=O)[C@H](CC(N)=O)NC(=O)[C@H](CC(N)=O)NC1=O` (Ac-CVDINNNC-NH2; disulfide 1-8), binding in data set [3] was put at a Kd of 4.4 nM.
As for `CC[C@H](C)[C@H](NC(=O)[C@H](CC(=O)O)NC(=O)[C@@H](NC(=O)[C@H](CS)NC(C)=O)C(C)C)C(=O)N[C@@H](CC(N)=O)C(=O)N[C@@H](CC(N)=O)C(=O)N[C@@H](CC(N)=O)C(=O)N[C@@H](CS)C(N)=O` (Ac-CVDINNNC-NH2), the remaining at 1 h, 0.5 mg/ml in data set [4] was 55%. Further, the Stability entry is recorded as “Unstable” in data set [5]; “Stable” in data set [6]; “Stable” in data set [7]; “Stable” in [8]; “Stable” in data set [2]. Moreover, the inhibition entry in data set [9] was “Active”. Besides, the Kd in data set [3] came to 35.1 nM.
On to Ac-DINNN-NH2, for which the Kd in [3] was determined as 318 nM.

The term Kd denotes the free concentration of one partner at which half of the binding sites on the other are occupied at equilibrium, for simple one-to-one binding.
